Assay results taken from patent publication US8124784B2, “Palladium metal complex” (Nagasaki University, priority 2008, dated 2012).

Test: Solubility of the metal complex A in organic solvents
Type: physicochemical
Experimental: The solubility of the metal complex A in organic solvents was tested.

[Pd2Au2Cl2(μ-dmpz)4(dmpzH)2] [metal complex A]
solubility in organic solvent (acetone): insoluble | solubility in organic solvent (acetonitrile): insoluble | solubility in organic solvent (benzene): slightly soluble | solubility in organic solvent (chloroform): soluble | solubility in organic solvent (diethyl ether): insoluble | solubility in organic solvent (ethanol): insoluble | solubility in organic solvent (hexane): insoluble | solubility in organic solvent (methanol): insoluble | solubility in organic solvent (methylene chloride): soluble | solubility in organic solvent (toluene): slightly soluble
